Laboratory results: paper PMC10527105, “Chirality Matters: Fine-Tuning of Novel Monoamine Reuptake Inhibitors Selectivity through Manipulation of Stereochemistry” (Biomolecules, 2023)
“And” between values parts separate entries of the source, which are not always exact repeats. Identical values can stand only once. Like-named read-outs stand apart in the source and are kept apart here.

Tests used:
Format in all cases: cell-based
[1] = molecular target: T1, human dopamine transporter/SLC6A3 (DAT) (Homo sapiens, UniProt Q01959); assay: Cellular uptake experiments: [3H]-dopamine reuptake inhibition in transporter-expressing HEK293 cells; settings: cells stably expressing DAT, [3H]-dopamine 1 µM, screening cut-off 50 µM
T1 construct: expressed in transfected cells; host or cells: HEK293
Protocol: (§1) Cell culture. Human embryonic kidney (HEK) 293 or SK-N-MC (human neuroblastoma) cells were grown in minimum essential medium with Earle’s salts and L-glutamine, 10% heat-inactivated fetal bovine serum, and 50 mg/L gentamicin. Cells were grown in 100- or 60-mm diameter tissue culture dishes (polystyrene, Falcon) at 37 °C under an atmosphere of 5% CO2/95% air. The human dopamine transporter/SLC6A3 (DAT), noradrenaline transporter/SLC6A2 (NET), or human serotonin transporter/SLC6A4 (SERT) cDNA was stably expressed using methods as described previously.
(§2) Cellular uptake experiments. The transporter-expressing HEK293 cells were seeded in poly-D-lysine-coated 24-well plates (1 × 10^5 cells/well) and, one day later, each well was washed with 0.5 mL uptake buffer and incubated with 0.5 mL buffer containing various concentrations of the drugs. Uptake was started by the addition of [^3H]-dopamine, [^3H]-noradrenaline, or [^3H]-serotonin at a final concentration of 1 µM (specific activity 0.14 Ci/mmol) after 5 min of preincubation. After incubation for 2.5 min (SERT-cells: 5 min) at 25 °C, it was stopped by aspirating the uptake buffer and washing each well twice with 1 mL ice-cold buffer. Nonspecific uptake was determined in the presence of 10 µM mazindol (DAT- and NET-cells) or 10 µM clomipramine (SERT-cells). The radioactivity remaining in each well was determined by incubating with 0.4 mL 1% sodium dodecyl sulphate and transferring this solution into scintillation vials containing 3 mL of scintillation cocktail (Ultima Gold MV, Packard, Dovners Grove, IL, USA). The uptake buffer consisted of (mmol/L): 4 Tris–HCl; 6.25 4-(2-hydroxyethyl)-1-piperazineethanesulfonic acid (HEPES); 120 NaCl; 5 KCl; 1.2 CaCl2; 1.2 MgSO4; 5.6 D-glucose; 0.5 ascorbic acid; pH 7.1.

[2] = molecular target: T2, noradrenaline transporter/SLC6A2 (NET) (Homo sapiens, UniProt P23975); assay: Cellular uptake experiments: [3H]-noradrenaline reuptake inhibition in transporter-expressing HEK293 cells
T2 construct: expressed in transfected cells; host or cells: HEK293
Protocol: as §1, §2

[3] = molecular target: T3, human serotonin transporter/SLC6A4 (SERT) (Homo sapiens, UniProt P31645); assay: Cellular uptake experiments: [3H]-serotonin reuptake inhibition in transporter-expressing HEK293 cells
T3 construct: expressed in transfected cells; host or cells: HEK293
Protocol: as §1, §2

[4] = Reuptake Inhibition (IC50 ± SE, µM) DAT
[5] = Reuptake Inhibition (IC50 ± SE, µM) NET, cells stably expressing NET; [3H]-noradrenaline 1 µM; screening cut-off 50 µM
[6] = Reuptake Inhibition (IC50 ± SE, µM) SERT, cells stably expressing SERT; [3H]-serotonin 1 µM; screening cut-off 50 µM
[7] = read-out: Reuptake Inhibition (IC50 ± SE, µM) NET; cells stably expressing NET; [3H]-noradrenaline 1 µM; screening cut-off 50 µM
[8] = read-out: Reuptake Inhibition (IC50 ± SE, µM) SERT; cells stably expressing SERT; [3H]-serotonin 1 µM; screening cut-off 50 µM
[9] = read-out: Reuptake Inhibition (IC50 ± SE, µM) DAT
[10] = cells stably expressing NET; [3H]-noradrenaline 1 µM; screening cut-off 50 µM; read-out: Reuptake Inhibition (IC50 ± SE, µM) NET
[11] = cells stably expressing SERT; [3H]-serotonin 1 µM; screening cut-off 50 µM; read-out: Reuptake Inhibition (IC50 ± SE, µM) SERT

T2 sequence (P23975 whole entry): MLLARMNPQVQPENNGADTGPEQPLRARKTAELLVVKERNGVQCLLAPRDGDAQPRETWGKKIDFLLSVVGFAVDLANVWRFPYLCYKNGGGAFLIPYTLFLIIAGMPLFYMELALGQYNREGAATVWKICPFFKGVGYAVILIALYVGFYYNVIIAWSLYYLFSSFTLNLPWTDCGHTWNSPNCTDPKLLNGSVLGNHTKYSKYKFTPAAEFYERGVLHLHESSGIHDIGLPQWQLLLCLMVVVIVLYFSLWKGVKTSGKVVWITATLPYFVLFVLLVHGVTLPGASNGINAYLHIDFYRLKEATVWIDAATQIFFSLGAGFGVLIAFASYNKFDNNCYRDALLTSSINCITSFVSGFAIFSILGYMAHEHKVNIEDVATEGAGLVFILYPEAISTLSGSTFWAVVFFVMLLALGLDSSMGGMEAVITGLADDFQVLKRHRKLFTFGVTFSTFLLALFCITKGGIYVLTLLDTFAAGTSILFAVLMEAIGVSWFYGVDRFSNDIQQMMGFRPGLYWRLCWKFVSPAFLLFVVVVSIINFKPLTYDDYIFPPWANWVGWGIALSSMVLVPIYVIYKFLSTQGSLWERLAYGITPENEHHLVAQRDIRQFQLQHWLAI
T3 sequence (P31645 whole entry): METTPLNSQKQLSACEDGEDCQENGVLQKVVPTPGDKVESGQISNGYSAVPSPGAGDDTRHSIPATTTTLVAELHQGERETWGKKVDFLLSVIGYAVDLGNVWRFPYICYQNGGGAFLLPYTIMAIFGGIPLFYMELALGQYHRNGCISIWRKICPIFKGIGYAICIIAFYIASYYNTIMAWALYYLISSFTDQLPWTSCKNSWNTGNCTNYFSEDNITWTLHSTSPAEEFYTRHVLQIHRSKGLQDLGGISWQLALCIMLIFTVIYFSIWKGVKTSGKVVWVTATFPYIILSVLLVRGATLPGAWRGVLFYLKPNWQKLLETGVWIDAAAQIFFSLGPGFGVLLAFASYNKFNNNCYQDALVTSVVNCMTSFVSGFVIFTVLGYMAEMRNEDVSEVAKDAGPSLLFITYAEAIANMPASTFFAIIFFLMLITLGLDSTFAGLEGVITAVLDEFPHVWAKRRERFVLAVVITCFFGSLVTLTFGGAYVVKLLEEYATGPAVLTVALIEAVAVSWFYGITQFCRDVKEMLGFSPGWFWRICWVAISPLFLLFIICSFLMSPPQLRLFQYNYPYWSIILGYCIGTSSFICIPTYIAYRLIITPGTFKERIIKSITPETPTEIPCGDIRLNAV
T1 sequence (Q01959 whole entry): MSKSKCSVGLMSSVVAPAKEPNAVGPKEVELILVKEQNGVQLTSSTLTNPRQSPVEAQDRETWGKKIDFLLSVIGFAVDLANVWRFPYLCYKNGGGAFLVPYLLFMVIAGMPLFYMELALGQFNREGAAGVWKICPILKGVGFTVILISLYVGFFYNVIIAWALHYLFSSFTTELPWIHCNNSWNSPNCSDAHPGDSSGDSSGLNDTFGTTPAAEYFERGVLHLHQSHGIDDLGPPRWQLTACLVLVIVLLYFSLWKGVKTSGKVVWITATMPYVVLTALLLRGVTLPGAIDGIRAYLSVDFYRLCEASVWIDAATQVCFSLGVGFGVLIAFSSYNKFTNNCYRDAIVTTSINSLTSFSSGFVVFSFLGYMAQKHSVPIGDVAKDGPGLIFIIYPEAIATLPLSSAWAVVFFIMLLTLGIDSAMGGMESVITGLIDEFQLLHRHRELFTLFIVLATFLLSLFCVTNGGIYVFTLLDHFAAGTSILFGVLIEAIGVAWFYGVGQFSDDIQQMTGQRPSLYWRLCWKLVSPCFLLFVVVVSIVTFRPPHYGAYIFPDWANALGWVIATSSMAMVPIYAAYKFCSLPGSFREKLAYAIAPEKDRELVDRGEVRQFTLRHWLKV

SMILES	IC50 [1, 4] [µM]	IC50 [2, 5] [µM]	IC50 [3, 6] [µM]	IC50 [2, 7] [µM]	IC50 [3, 8] [µM]	IC50 [1, 9]	IC50 [2, 10] [µM]	IC50 [3, 11] [µM]
COc1ccccc1[C@@H](c1ccccc1)[S@@+]([O-])Cc1cccs1 [Compound 7r, (S,R)-2-((((2-methoxyphenyl)(phenyl)methyl)sulfinyl)methyl)thiophene]	1.7 ± 0.1	> 50	> 50	–	–	–	–	–
COc1cccc(C(c2ccccc2)[S+]([O-])Cc2cccs2)c1 (stereo not drawn) [Compound 7s, 2-((((3-methoxyphenyl)(phenyl)methyl)sulfinyl)methyl)thiophene]	1.56 ± 0.24	–	> 50	> 50	–	–	–	–
COc1ccc([C@@H](c2ccccc2)[S@@+]([O-])Cc2cccs2)cc1 [Compound 7t, (S,R)-2-((((4-methoxyphenyl)(phenyl)methyl)sulfinyl)methyl)thiophene]	15 ± 2	> 50	> 50	–	–	–	–	–
[O-][S+](Cc1cccs1)C(c1ccc(F)cc1)c1ccc(Cl)cc1 (stereo not drawn) [Compound 7u, 2-((((4-chlorophenyl)(4-fluorophenyl)methyl)sulfinyl)methyl)thiophene]	6.4 ± 0.4	–	–	> 50	> 50	–	–	–
[O-][S@@+](Cc1cccs1)[C@H](c1ccccc1)c1ccccc1F [Compound 8a, (S,R)-2-((((2-fluorophenyl)(phenyl)methyl)sulfinyl)methyl)thiophene]	–	–	–	–	–	1.09 ± 0.07 µM	> 50	> 50
[O-][S+](Cc1cccs1)C(c1ccccc1)c1cccc(F)c1 (stereo not drawn) [Compound 8b, 2-((((3-fluorophenyl)(phenyl)methyl)sulfinyl)methyl)thiophene]	–	–	–	–	–	9 ± 3 µM	> 50	> 50
[O-][S+](Cc1cccs1)C(c1ccccc1)c1ccc(F)cc1 (stereo not drawn) [Compound 8c, 2-((((4-fluorophenyl)(phenyl)methyl)sulfinyl)methyl)thiophene]	–	–	–	–	–	5.2 ± 0.1 µM	> 50	24 ± 6
[O-][S@@+](Cc1cccs1)[C@H](c1ccccc1)c1ccccc1Cl [Compound 8d, (S,R)-2-((((2-chlorophenyl)(phenyl)methyl)sulfinyl)methyl)thiophene]	–	–	–	–	–	2.55 ± 0.04 µM	> 50	> 50
[O-][S@+](Cc1cccs1)[C@H](c1ccccc1)c1cccc(Cl)c1 [Compound 8e, (R,R)-2-((((3-chlorophenyl)(phenyl)methyl)sulfinyl)methyl)thiophene]	0.83 ± 0.16	48 ± 6	19 ± 1	–	–	–	–	–
[O-][S@+](Cc1cccs1)[C@H](c1ccccc1)c1ccc(Cl)cc1 [Compound 8f, (R,R)-2-((((4-chlorophenyl)(phenyl)methyl)sulfinyl)methyl)thiophene]	4.9 ± 0.6	> 50	> 50	–	–	–	–	–
[O-][S+](Cc1cccs1)C(c1ccccc1)c1ccccc1Br (stereo not drawn) [Compound 8g, 2-((((2-bromophenyl)(phenyl)methyl)sulfinyl)methyl)thiophene]	5.06 ± 0.31	–	–	> 50	> 50	–	–	–
[O-][S+](Cc1cccs1)C(c1ccccc1)c1ccccc1I (stereo not drawn) [Compound 8i, 2-((((2-iodophenyl)(phenyl)methyl)sulfinyl)methyl)thiophene]	9.6 ± 1.2	–	–	> 50	> 50	–	–	–
[O-][S+](Cc1cccs1)C(c1ccccc1)c1cccc(I)c1 (stereo not drawn) [Compound 8j, 2-((((3-iodophenyl)(phenyl)methyl)sulfinyl)methyl)thiophene]	1.5 ± 0.17	–	–	> 50	> 50	–	–	–
[O-][S@+](Cc1cccs1)[C@H](c1ccccc1)c1ccc(I)cc1 [Compound 8k, (R,R)-2-((((4-iodophenyl)(phenyl)methyl)sulfinyl)methyl)thiophene]	2.6 ± 0.1	> 50	> 50	–	–	–	–	–
Cc1ccccc1C(c1ccccc1)[S+]([O-])Cc1cccs1 (stereo not drawn) [Compound 8l, 2-(((phenyl(o-tolyl)methyl)sulfinyl)methyl)thiophene]	–	–	–	–	–	9.5 ± 0.9 µM	> 50	> 50
Cc1cccc([C@@H](c2ccccc2)[S@+]([O-])Cc2cccs2)c1 [Compound 8m, (R,R)-2-(((phenyl(m-tolyl)methyl)sulfinyl)methyl)thiophene]	1.56 ± 0.25	> 50	> 50	–	–	–	–	–
Cc1ccc([C@@H](c2ccccc2)[S@+]([O-])Cc2cccs2)cc1 [Compound 8n, (R,R)-2-(((phenyl(p-tolyl)methyl)sulfinyl)methyl)thiophene]	–	> 50	–	–	–	4 µM and 4.01 µM	–	25 ± 4
[O-][S+](Cc1cccs1)C(c1ccccc1)c1ccccc1C(F)(F)F (stereo not drawn) [Compound 8o, 2-(((phenyl(2-(trifluoromethyl)phenyl)methyl)sulfinyl)methyl)thiophene]	8.9 ± 0.7	> 50	–	–	> 50	–	–	–
[O-][S+](Cc1cccs1)C(c1ccccc1)c1cccc(C(F)(F)F)c1 (stereo not drawn) [Compound 8p, 2-(((phenyl(3-(trifluoromethyl)phenyl)methyl)sulfinyl)methyl)thiophene]	6.2 ± 0.6	–	31 ± 5	> 50	–	–	–	–
[O-][S+](Cc1cccs1)C(c1ccccc1)c1ccc(C(F)(F)F)cc1 (stereo not drawn) [Compound 8q, 2-(((phenyl(4-(trifluoromethyl)phenyl)methyl)sulfinyl)methyl)thiophene]	21 ± 2	–	4.7 ± 0.5	> 50	–	–	–	–
COc1ccccc1C(c1ccccc1)[S+]([O-])Cc1cccs1 [Compound 8r, (S,S)-2-((((2-methoxyphenyl)(phenyl)methyl)sulfinyl)methyl)thiophene]	> 50	> 50	> 50	–	–	–	–	–
COc1cccc(C(c2ccccc2)[S+]([O-])Cc2cccs2)c1 (stereo not drawn) [Compound 8s, 2-((((3-methoxyphenyl)(phenyl)methyl)sulfinyl)methyl)thiophene]	> 50	–	> 50	> 50	–	–	–	–
COc1ccc([C@H](c2ccccc2)[S@+]([O-])Cc2cccs2)cc1 [Compound 8t, (R,S)-2-((((4-methoxyphenyl)(phenyl)methyl)sulfinyl)methyl)thiophene]	> 50	> 50	> 50	–	–	–	–	–
[O-][S+](Cc1cccs1)C(c1ccc(F)cc1)c1ccc(Cl)cc1 (stereo not drawn) [Compound 8u, 2-((((4-chlorophenyl)(4-fluorophenyl)methyl)sulfinyl)methyl)thiophene]	5.4 ± 1	–	–	> 50	> 50	–	–	–
